Assay results published in patent publication US20130230459A1, “RADIOLABELLED mGluR2 PET LIGANDS” (Janssen Pharmaceuticals, Inc., priority 2010, published 2013).

target: T1, hmGluR3 (Homo sapiens, UniProt Q14832); test: Selectivity functional receptor assay, mGluR3; format: cell-based; conditions: hmGluR2 versus mGluR3
T1 construct: expressed in transfected cells
Method: (§1) Selectivity of the compounds for hmGluR2 versus hmGluR1, hmGluR3, hmGluR4, hmGluR5, rmGluR6, hmGluR7 and hmGluR8 was determined using functional receptor assays (either measuring changes in intracellular Ca2+ mobilization or G protein activation via [^35S]GTPγS) with cells overexpressing the receptor of interest.

T1 sequence (Q14832 23-879): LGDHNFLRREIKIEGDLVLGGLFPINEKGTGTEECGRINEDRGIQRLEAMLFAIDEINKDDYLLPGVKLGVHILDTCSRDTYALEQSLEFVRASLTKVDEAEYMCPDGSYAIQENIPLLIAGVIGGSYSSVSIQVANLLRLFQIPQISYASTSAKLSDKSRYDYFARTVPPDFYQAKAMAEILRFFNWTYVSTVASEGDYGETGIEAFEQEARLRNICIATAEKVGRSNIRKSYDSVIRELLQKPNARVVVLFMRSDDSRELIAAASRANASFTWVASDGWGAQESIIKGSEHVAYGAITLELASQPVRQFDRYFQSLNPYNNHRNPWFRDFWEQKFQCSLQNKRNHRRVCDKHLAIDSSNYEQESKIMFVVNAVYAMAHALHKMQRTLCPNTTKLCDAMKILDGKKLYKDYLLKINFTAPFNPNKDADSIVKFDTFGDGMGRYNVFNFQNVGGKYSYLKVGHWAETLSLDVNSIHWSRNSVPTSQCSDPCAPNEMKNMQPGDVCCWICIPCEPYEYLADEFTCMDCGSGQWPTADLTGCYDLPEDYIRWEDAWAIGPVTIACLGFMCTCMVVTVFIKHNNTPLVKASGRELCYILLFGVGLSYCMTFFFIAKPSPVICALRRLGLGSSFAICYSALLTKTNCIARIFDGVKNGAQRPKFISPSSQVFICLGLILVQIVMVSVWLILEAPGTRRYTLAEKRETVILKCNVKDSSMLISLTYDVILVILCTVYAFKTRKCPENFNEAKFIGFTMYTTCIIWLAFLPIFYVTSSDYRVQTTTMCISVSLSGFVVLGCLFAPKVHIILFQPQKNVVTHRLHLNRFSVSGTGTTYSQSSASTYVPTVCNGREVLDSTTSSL

Selectivity over mGluR3 | SMILES
which selectivity ≧500 fold | COc1ccc(F)c(F)c1C1CCN(c2ccn3c(CC4CC4)nnc3c2Cl)CC1 [compound 10]
≧500 fold | COc1cc(F)cc(F)c1C1CCN(c2ccn3c(CC4CC4)nnc3c2Cl)CC1 [compound 7]
~20 fold | COc1ccccc1C1CCN(c2ccn3c(CC4CC4)nnc3c2Cl)CC1 [compound 11]
> 300 fold | COc1cccc(F)c1C1CCN(c2ccn3c(CC4CC4)nnc3c2Cl)CC1 [compound 6]

Second part, the compound before the results:

SMILES | Selectivity over mGluR3
COc1c(F)cccc1C1CCN(c2ccn3c(CC4CC4)nnc3c2C(F)(F)F)CC1 [compound 12] | ≥ 200 fold
COc1c(C2CCN(c3ccn4c(CC5CC5)nnc4c3Cl)CC2)ccc(F)c1F [compound 8] | ≥ 400 fold
COc1ccc(F)cc1C1CCN(c2ccn3c(CC4CC4)nnc3c2Cl)CC1 [compound 4] | ≥ 40 fold

target: T2, human mGluR2 receptor (Homo sapiens, UniProt Q14416); test: [35S]GTPγS binding assay, mGluR2 positive allosteric modulation (PAM); format: biochemical; conditions: in presence of ~EC20 glutamate, membranes of CHO cells with human mGluR2
T2 construct: expressed in transfected cells; host or cells: CHO cells (membranes)
Method: The [^35S]GTPγS binding assay is a functional membrane-based assay used to study G-protein coupled receptor (GPCR) function whereby incorporation of a non-hydrolysable form of GTP, [^35S]GTPγS (guanosine 5′-triphosphate, labelled with […] ^35S), is measured.
CHO-cells were cultured to pre-confluence and stimulated with 5 mM butyrate for 24 h. Cells were then collected by scraping in PBS and cell suspension was centrifuged (10 min at 4000 RPM in benchtop centrifuge). Supernatant was discarded and pellet gently resuspended in 50 mM Tris-HCl, pH 7.4 by mixing with a vortex and pipetting up and down. The suspension was centrifuged at 16,000 RPM (Sorvall RC-5C plus rotor SS-34) for 10 minutes and the supernatant discarded. The pellet was homogenized in 5 mM Tris-HCl, pH 7.4 using an ultra-turrax homogenizer and centrifuged again (18,000 RPM, 20 min, 4° C.). The final pellet was resuspended in 50 mM Tris-HCl, pH 7.4 and stored at −80° C. in appropriate aliquots before use. Protein concentration was determined by the Bradford method (Bio-Rad, USA) with bovine serum albumin as standard.
Measurement of mGluR2 positive allosteric modulatory activity of test compounds was performed as follows. Test compounds and glutamate were diluted in assay buffer containing 10 mM HEPES acid, 10 mM HEPES salt, pH 7.4, 100 mM NaCl, 3 mM MgCl2 and 10 μM GDP. Human mGlu2 receptor-containing membranes were thawed on ice and diluted in assay buffer supplemented with 14 μg/ml saponin. Membranes were pre-incubated with compound alone or together with a predefined (˜EC20) concentration of glutamate (PAM assay) for 30 min at 30° C. After addition of [^35S]GTPγS (f.c. 0.1 nM), assay mixtures were shaken briefly and further incubated to allow [^35S]GTPγS incorporation on activation (30 minutes, 30° C.). Final assay mixtures contained 7 μg of membrane protein in 10 mM HEPES acid, 10 mM HEPES salt, pH 7.4, 100 mM NaCl, 3 mM MgCl2,10 μM GDP and 10 μg/ml saponin. Total reaction volume was 200 μl. Reactions were terminated by rapid filtration through Unifilter-96 GF/B plates (Perkin Elmer, Mass., USA) using a 96-well filtermate universal harvester. Filters were washed 6 times with ice-cold 10 mM NaH2PO4/10 mM Na2HPO4, pH 7.4. Filters were then air-dried, and 40 μl of liquid scintillation cocktail (Microscint-O) was added to each well. Membrane-bound radioactivity was counted in a Microplate Scintillation and Luminescence Counter from Perkin Elmer.
The concentration-response curves of representative compounds of the present invention—obtained in the presence of EC20 of mGluR2 agonist glutamate to determine positive allosteric modulation (PAM)—were generated using the Lexis software interface (developed at J&J). Data were calculated as % of the control glutamate response, defined as the maximal response that is generated upon addition of glutamate alone. Sigmoid concentration-response curves plotting these percentages versus the log concentration of the test compound were analyzed using non-linear regression analysis. The concentration producing half-maximal effect is then calculated as EC50.
The pEC50 values below were calculated as the −log EC50, when the EC50 is expressed in M.

T2 sequence (Q14416 19-872): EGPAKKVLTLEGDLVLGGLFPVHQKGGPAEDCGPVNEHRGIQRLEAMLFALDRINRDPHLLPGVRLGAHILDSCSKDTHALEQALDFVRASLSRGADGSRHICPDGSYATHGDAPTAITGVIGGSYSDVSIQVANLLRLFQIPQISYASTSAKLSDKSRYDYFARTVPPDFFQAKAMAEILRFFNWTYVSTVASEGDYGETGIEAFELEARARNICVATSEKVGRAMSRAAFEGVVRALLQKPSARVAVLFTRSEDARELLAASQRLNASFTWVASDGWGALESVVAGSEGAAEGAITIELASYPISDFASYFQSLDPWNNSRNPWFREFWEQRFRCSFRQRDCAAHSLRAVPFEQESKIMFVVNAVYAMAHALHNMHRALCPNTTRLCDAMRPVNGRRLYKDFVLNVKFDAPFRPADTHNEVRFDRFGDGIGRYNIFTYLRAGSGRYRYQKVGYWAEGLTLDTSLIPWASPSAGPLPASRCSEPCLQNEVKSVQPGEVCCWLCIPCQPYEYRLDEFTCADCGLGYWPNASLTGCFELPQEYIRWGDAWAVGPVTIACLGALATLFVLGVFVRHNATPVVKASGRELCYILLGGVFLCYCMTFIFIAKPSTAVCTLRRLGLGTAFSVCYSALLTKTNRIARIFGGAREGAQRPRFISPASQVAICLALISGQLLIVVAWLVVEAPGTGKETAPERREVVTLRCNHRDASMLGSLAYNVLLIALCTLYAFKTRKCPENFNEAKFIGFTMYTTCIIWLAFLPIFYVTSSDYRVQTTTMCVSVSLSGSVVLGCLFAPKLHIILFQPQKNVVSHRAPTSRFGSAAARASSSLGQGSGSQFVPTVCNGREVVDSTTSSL

GTPγS-hmGluR2 PAM pEC50 | SMILES
7.43 | COc1c(F)cccc1C1CCN(c2ccn3c(CC4CC4)nnc3c2Cl)CC1 [compound 9]
8.03 | COc1ccc(F)c(F)c1C1CCN(c2ccn3c(CC4CC4)nnc3c2Cl)CC1 [compound 10]
8.16 | COc1cc(F)cc(F)c1C1CCN(c2ccn3c(CC4CC4)nnc3c2Cl)CC1 [compound 7]
7.7 | COc1ccccc1C1CCN(c2ccn3c(CC4CC4)nnc3c2Cl)CC1 [compound 11]
8.22 | COc1cccc(F)c1C1CCN(c2ccn3c(CC4CC4)nnc3c2Cl)CC1 [compound 6]

More lines, now with the values behind:

SMILES | GTPγS-hmGluR2 PAM pEC50
COc1c(F)ccc(F)c1C1CCN(c2ccn3c(CC4CC4)nnc3c2C(F)(F)F)CC1 [compound 3] | 8.39
COc1ccc(F)cc1C1CCN(c2ccn3c(CC(F)(F)F)nnc3c2Cl)CC1 [compound 1] | 7.98

same assay, conditions: in presence of ~EC20 glutamate, membranes of CHO cells with human mGluR2; read-out: GTPγS-hmGluR2 PAM pEC50 (converted)

SMILES | EC50 [nM]
COc1c(F)cccc1C1CCN(c2ccn3c(CC4CC4)nnc3c2C(F)(F)F)CC1 [compound 12] | 11.2
COc1cccc(F)c1C1CCN(c2ccn3c(CC(F)(F)F)nnc3c2Cl)CC1 [compound 5] | 3.89
COc1c(F)ccc(F)c1C1CCN(c2ccn3c(CC4CC4)nnc3c2Cl)CC1 [compound 2] | 7.41
COc1c(C2CCN(c3ccn4c(CC5CC5)nnc4c3Cl)CC2)ccc(F)c1F [compound 8] | 26.3
COc1ccc(F)cc1C1CCN(c2ccn3c(CC4CC4)nnc3c2Cl)CC1 [compound 4] | 9.33

tested on: not given; test: not given; conditions: not given

melting point [°C] | SMILES
168.3 | COc1c(F)cccc1C1CCN(c2ccn3c(CC4CC4)nnc3c2Cl)CC1 [compound 9]
208.5 | COc1ccc(F)c(F)c1C1CCN(c2ccn3c(CC4CC4)nnc3c2Cl)CC1 [compound 10]
162.2 | COc1cc(F)cc(F)c1C1CCN(c2ccn3c(CC4CC4)nnc3c2Cl)CC1 [compound 7]

Continued, compound first:

SMILES | melting point [°C]
COc1c(F)cccc1C1CCN(c2ccn3c(CC4CC4)nnc3c2C(F)(F)F)CC1 [compound 12] | 195.7
COc1c(F)ccc(F)c1C1CCN(c2ccn3c(CC4CC4)nnc3c2C(F)(F)F)CC1 [compound 3] | 180.7
COc1c(F)ccc(F)c1C1CCN(c2ccn3c(CC4CC4)nnc3c2Cl)CC1 [compound 2] | 163.2
COc1c(C2CCN(c3ccn4c(CC5CC5)nnc4c3Cl)CC2)ccc(F)c1F [compound 8] | 173.5
COc1ccc(F)cc1C1CCN(c2ccn3c(CC4CC4)nnc3c2Cl)CC1 [compound 4] | > 300
COc1ccc(F)cc1C1CCN(c2ccn3c(CC(F)(F)F)nnc3c2Cl)CC1 [compound 1] | 259

target: T3, hmGluR8 (Homo sapiens, UniProt O00222); test: Selectivity functional receptor assay, mGluR8; format: cell-based; conditions: hmGluR2 versus mGluR8
T3 construct: expressed in transfected cells
Method: as §1

T3 sequence (O00222 34-908): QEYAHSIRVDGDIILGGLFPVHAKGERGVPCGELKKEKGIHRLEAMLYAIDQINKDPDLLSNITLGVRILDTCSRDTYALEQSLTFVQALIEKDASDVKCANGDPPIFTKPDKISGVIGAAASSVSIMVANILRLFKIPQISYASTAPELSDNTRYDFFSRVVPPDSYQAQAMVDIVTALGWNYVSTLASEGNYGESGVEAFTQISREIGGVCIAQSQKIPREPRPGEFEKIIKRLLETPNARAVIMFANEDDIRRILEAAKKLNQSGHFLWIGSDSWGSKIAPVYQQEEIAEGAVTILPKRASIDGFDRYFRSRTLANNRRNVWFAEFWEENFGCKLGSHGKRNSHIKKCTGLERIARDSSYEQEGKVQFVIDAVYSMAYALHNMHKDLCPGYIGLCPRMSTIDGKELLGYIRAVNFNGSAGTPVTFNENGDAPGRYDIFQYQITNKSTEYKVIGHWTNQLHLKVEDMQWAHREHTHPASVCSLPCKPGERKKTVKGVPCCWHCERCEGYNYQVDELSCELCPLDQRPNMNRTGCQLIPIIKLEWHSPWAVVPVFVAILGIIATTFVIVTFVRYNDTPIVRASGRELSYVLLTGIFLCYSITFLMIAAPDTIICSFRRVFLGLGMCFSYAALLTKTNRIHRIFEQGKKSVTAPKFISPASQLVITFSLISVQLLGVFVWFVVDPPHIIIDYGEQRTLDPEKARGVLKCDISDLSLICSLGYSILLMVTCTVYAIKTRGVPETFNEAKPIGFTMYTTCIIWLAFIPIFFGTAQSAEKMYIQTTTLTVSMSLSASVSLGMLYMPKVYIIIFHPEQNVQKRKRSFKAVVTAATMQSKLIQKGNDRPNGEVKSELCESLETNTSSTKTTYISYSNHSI

Selectivity over mGluR8 | SMILES
which selectivity ≧500 fold | COc1ccc(F)c(F)c1C1CCN(c2ccn3c(CC4CC4)nnc3c2Cl)CC1 [compound 10]
≧500 fold | COc1cc(F)cc(F)c1C1CCN(c2ccn3c(CC4CC4)nnc3c2Cl)CC1 [compound 7]

SMILES | Selectivity over mGluR8
COc1cccc(F)c1C1CCN(c2ccn3c(CC4CC4)nnc3c2Cl)CC1 [compound 6] | mGluR7 and mGluR8 for which selectivity >500 fold

target: T4, hmGluR7 (Homo sapiens, UniProt Q14831); test: Selectivity functional receptor assay, mGluR7; format: cell-based; conditions: hmGluR2 versus mGluR7
T4 construct: expressed in transfected cells
Method: as §1

T4 sequence (Q14831 35-915): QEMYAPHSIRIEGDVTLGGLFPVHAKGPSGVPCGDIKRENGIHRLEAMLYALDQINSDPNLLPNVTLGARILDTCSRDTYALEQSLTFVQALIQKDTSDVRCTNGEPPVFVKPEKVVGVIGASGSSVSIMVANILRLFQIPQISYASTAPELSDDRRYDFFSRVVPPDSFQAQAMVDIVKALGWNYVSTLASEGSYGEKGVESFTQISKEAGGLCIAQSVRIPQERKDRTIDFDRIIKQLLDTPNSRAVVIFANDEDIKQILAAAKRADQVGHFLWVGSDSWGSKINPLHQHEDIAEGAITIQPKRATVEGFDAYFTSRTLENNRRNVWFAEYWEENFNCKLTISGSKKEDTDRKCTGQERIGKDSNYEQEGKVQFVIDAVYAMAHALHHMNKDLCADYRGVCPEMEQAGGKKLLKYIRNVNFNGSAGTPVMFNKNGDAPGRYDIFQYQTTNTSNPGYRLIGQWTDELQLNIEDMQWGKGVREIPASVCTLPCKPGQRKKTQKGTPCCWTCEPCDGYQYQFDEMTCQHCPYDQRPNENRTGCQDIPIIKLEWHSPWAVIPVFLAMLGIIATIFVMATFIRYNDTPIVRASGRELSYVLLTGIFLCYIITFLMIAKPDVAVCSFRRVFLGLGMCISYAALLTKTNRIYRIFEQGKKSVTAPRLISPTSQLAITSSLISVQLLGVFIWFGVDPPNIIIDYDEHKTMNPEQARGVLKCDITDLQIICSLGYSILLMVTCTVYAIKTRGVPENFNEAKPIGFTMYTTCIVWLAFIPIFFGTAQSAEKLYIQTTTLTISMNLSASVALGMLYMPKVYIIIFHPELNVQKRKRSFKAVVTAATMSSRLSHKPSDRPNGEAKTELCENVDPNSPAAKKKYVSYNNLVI

SMILES | Selectivity over mGluR7
COc1cccc(F)c1C1CCN(c2ccn3c(CC4CC4)nnc3c2Cl)CC1 [compound 6] | mGluR7 and mGluR8 for which selectivity >500 fold

tested on: hmGluR1, hmGluR3, hmGluR4, hmGluR5, rmGluR6, hmGluR7 and hmGluR8; test: Selectivity for hmGluR2 in functional receptor assays (Ca2+ mobilization or [35S]GTPγS); format: cell-based, human; rat (mGluR6); conditions: hmGluR2 versus other mGluRs
Method: as §1

SMILES | Selectivity over mGluR1, mGluR3-mGluR8
COc1c(F)cccc1C1CCN(c2ccn3c(CC4CC4)nnc3c2Cl)CC1 [compound 9] | >500 fold
COc1ccc(F)c(F)c1C1CCN(c2ccn3c(CC4CC4)nnc3c2Cl)CC1 [compound 10] | >1,000 fold, except for mGluR3 and mGluR8 for
COc1c(F)cccc1C1CCN(c2ccn3c(CC4CC4)nnc3c2C(F)(F)F)CC1 [compound 12] | ≥ 1,000 fold
COc1c(F)ccc(F)c1C1CCN(c2ccn3c(CC4CC4)nnc3c2C(F)(F)F)CC1 [compound 3] | >1,000 fold
COc1cccc(F)c1C1CCN(c2ccn3c(CC(F)(F)F)nnc3c2Cl)CC1 [compound 5] | ≧1,000 fold
COc1c(F)ccc(F)c1C1CCN(c2ccn3c(CC4CC4)nnc3c2Cl)CC1 [compound 2] | >1,000 fold
COc1cc(F)cc(F)c1C1CCN(c2ccn3c(CC4CC4)nnc3c2Cl)CC1 [compound 7] | >1,000 fold, except for mGluR3 and mGluR8
COc1c(C2CCN(c3ccn4c(CC5CC5)nnc4c3Cl)CC2)ccc(F)c1F [compound 8] | > 1,000 fold
COc1ccccc1C1CCN(c2ccn3c(CC4CC4)nnc3c2Cl)CC1 [compound 11] | >100, except for mGluR3 for which selectivity fold
COc1ccc(F)cc1C1CCN(c2ccn3c(CC4CC4)nnc3c2Cl)CC1 [compound 4] | > 500 fold
COc1cccc(F)c1C1CCN(c2ccn3c(CC4CC4)nnc3c2Cl)CC1 [compound 6] | > 1,000 fold
COc1ccc(F)cc1C1CCN(c2ccn3c(CC(F)(F)F)nnc3c2Cl)CC1 [compound 1] | >1,000 fold
